Columns and labels:
Format in all cases: biochemical
[1] = biological target: T1, D14 (Oryza sativa, UniProt Q10QA5); test: inhibition of YLG hydrolysis, fluorescence
T1 sequence (Q10QA5 54-318): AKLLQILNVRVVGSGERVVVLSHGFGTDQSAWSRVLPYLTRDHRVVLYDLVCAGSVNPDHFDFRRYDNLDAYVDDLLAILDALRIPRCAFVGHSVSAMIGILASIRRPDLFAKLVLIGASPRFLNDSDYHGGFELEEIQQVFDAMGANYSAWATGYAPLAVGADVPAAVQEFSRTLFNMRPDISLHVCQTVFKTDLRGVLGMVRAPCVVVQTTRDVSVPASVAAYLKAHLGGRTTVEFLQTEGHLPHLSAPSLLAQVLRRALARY

[2] = biological target: T2, ShHTL7 (Striga hermonthica, UniProt A0A0M3PNA2); test: inhibition of YLG hydrolysis, fluorescence
T2 sequence (A0A0M3PNA2 1-271): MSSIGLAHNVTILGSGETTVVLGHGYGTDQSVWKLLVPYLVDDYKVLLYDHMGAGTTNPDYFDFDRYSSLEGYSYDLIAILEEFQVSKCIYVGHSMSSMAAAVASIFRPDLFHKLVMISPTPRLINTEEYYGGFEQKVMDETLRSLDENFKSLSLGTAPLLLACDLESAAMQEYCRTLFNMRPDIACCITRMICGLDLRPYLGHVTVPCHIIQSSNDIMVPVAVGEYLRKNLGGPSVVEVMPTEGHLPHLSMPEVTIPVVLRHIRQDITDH

[3] = biological target: T1, D14; test: fluorogenic hydrolysis, ex […] nm, em […] nm; conditions: read-out: Km^YLG; 100 mM PBS pH 7.3, 0.1% DMSO, 30 °C; no inhibitor

IC50 [1] [µM] | IC50 [2] [µM] | Km [3] [µM] | Compound
5.8 | 0.15 |  | CC1=C[C@@H](O/C=C2/C(=O)O[C@@H]3c4ccccc4C[C@H]23)OC1=O [GR24]
 |  | 1.84 | CCOC(=O)c1ccccc1-c1c2ccc(=O)cc-2oc2cc(OC3C=C(C)C(=O)O3)ccc12 (centres unmarked) [Yoshimulactone Green]
1.8 |  |  | O=C(N1CCc2ccccc21)n1ccnn1 [compound 26, indolin-1-yl(1H-1,2,3-triazol-1-yl)methanone]
7.9 |  |  | O=C(N1CCc2ccccc21)n1nccn1 [compound 26, indolin-1-yl(2H-1,2,3-triazol-2-yl)methanone]
